US9670244B2, “Oxysterol compounds and the hedgehog pathway” (THE REGENTS OF THE UNIVERSITY OF CALIFORNIA, priority 2006, dated 2017)
“And” between values parts separate entries of the source, which are not always exact repeats. Equal values may be shown once. “Also recorded” adds a separate entry of the source.

What was measured:
[1] = tested on: M2-10B4 marrow stromal cells; test: Alkaline phosphatase activity assay in M2-10B4 marrow stromal cells; format: cell-based, mouse
Protocol: (§1) The cells used are the pluripotent M2 cells (M2-10B4) that we previously characterized for their ability to become osteoblastiic and adipocyte cells. […] These cells are derived from bone marrow, are easy to maintain and last for many passages in vitro. […] Among the markers of osteogenic differentiation that were assayed were alkaline phosphatase activity, osteocalcin mRNA expression and mineral formation in cultures of marrow stromal cells.
We tested the effect of the synthetic oxysterols, oxy-1 through oxy-15, on alkaline phosphatase activity in M2-10B4 marrow stromal cells. Cells were treated with the oxysterols for 4 days after which they were collected and analyzed by colorimetric assay for alkaline phosphatase activity.

[2] = tested on: Gli-dependent luciferase reporter; test: Gli-dependent luciferase reporter (Gli-Luc) assay in M2 cells; format: cell-based, mouse; details: for Gli reporter activity (synthetic oxysterols, FIG. 10): M2-10B4 Marrow Stromal Cells; for Induction of Gli reporter activity: ShhN 200 ng/ml, oxysterols 5 μM, TO 1 or 5 μM, 48 hours
Protocol: (§2) Cells were plated into 24-well plates and transfected the next day with Gli-dependent firefly luciferase and Renilla luciferase vectors and where indicated, Smo or Ptch expression vectors. […] Cells were treated for 48 hours prior to assessing luciferase activity using the Dual Luciferase Reporter Assay System (Promega, Madison, Wis.) according to manufacturer's instructions. Experiments were performed in triplicate and error bars indicate one standard deviation.
To further examine Hh pathway activation by oxysterols, a reporter assay using a luciferase reporter driven by a multimerized Gli-responsive element (5′-[…]-3′) (SEQ ID NO:4) was used.

Gli-1 and Ptch mRNA = test: Q-RT-PCR of hedgehog pathway genes in M2 cells; format: cell-based, mouse; details: for Inhibition of oxysterol-induced Gli-1 and Ptch mRNA expression: M2 cells, SS 24 hours, pretreatment or co-treatment with agent
Protocol: Q-RT-PCR was performed using reverse-transcribed RNA isolated from M2 cells using phenol/chloroform method. PCR reactions were performed using iQ SYBR Green Supermix and an iCycler RT-PCR Detection System (BIO-RAD Laboratories, Hercules, Calif.). Primer sequences for Gli-1, Gli-2, Gli-3, Shh and Ihh were kindly provided by Dr. Fanxin Long (Washington University, St. Louis, Mo.). Ptch and Smo primer sequences are available upon request. Q-RT-PCR data were normalized to cyclophilin expression and relative expression levels were calculated using the […] method (Livak et al. (2001) Methods 25, 402-408).

[3] = tested on: M2-10B4 marrow stromal cells; test: 45Ca incorporation (mineralization) assay in M2-10B4 marrow stromal cells; format: cell-based, mouse
Protocol: as §1
We tested the effect of oxysterols on mineralization in M2-10B4 marrow stromal cells. Cells were treated with the oxysterols for 14 days after which the amount of mineral formed in the cultures was quantified using a radioactive ^45Ca incorporation assay.

osteocalcin (OCN) mRNA = details: 4 μM pre-treatment, 5 μM SS 8 days
Protocol: (§3) Colorimetric alkaline phosphatase activity assay on whole cell extracts and Northern blotting for OCN and 18S rRNA were performed by conventional procedures. Gene expression was quantified using a Storm840 phosphorimager and ImageQuant software (Amersham, Piscataway, N.J.).

[4] = tested on: Gli-dependent luciferase reporter; details: 4 μM pre-treatment
Protocol: as §2

[5] = tested on: Runx2 DNA binding activity
Protocol: Oligonucleotides were annealed to their complementary sequences by boiling and cooling. The probes were end-labeled with γ^32P-ATP using polynucleotide kinase and column purified. […] Nuclear extracts (10 μg) were incubated in binding buffer (10 mM Tris pH 7.5, 100 mM NaCl, 1 mM DTT, 1 mM EDTA, 4% glycerol), 1 μg poly(dIdC) and 0.2 ng of labeled probe for 20 minutes at room temperature, and complexes were resolved on a cooled, 6% acrylamide 1×TBE gel. Subsequently, gels were dried and exposed to film.

rat femur periosteum = test: Rat periosteal femur model, bone formation scoring; format: in vivo; set-up: key to Bone formation Score, individual animal / Bone formation Score (radiograph scoring), individual animal: 4: Marked amount and contiguous on eriosteum; 3: Moderate amount and contiguous on eriosteum; 2: Small amount and contiguous on periosteum; 1: Small amount and small segments on periosteum; 0: None; details: for Bone formation score, Average / Bone formation score (radiograph scoring), Average: n=6
Protocol: Male SD rats were treated for two weeks with Oxy13 (or a control vehicle). The Oxy13 was delivered by an Alzet pump to the perioseum, in three doses or by daily injections. The treatment regimens were: two weeks treatment, n=6 per group, vehicle and three Oxy 13 doses continuous and two doses daily injection; and four weeks treatment, vehicle and two Oxy 13 doses, n=6/group. The bone in-growth endpoints that were evaluated were microradiography, histomorphometry and blinded, randomized visual scoring.

pMARCKS, pPKA, pCREB = test: Western blotting of phosphorylated proteins in M2 cell lysates; format: cell-based, mouse; details: SS 5 μM 10 min to 48 hours; PMA 30 min
Protocol: After treatments, cells were lysed in lysis buffer, protein concentrations determined using the Bio-Rad protein assay (Hercules, Calif.), and SDS-PAGE was performed, probing for native and phosphorylated proteins.
We previously reported that oxysterol-induced osteoblastic differentiation of cells is mediated via protein kinase C (PKC)- and protein kinase A (PKA)-dependent mechanisms. The role of these signaling pathways in regulating the different markers of osteoblastic differentiation appears to be both specific and overlapping. To begin elucidating the possible role of PKC and PKA in mediating oxysterol-induced Hh pathway activation, we examined the effect of PKC and PKA inhibitors on markers of Hh pathway activation. […] Similarly, oxysterol-induced Gli-1 and Ptch expression was inhibited in cells whose PKC stores were depleted following overnight pretreatment with 1 μM PMA (FIG. 6c,d). We next examined whether oxysterols induced PKC activation by assessing the levels of phosphorylated MARCKS (pMARCKS), a PKC substrate, by Western blotting.
To examine the possible role of PKA in oxysterol-induced Hh pathway activation, the effect of PKA inhibitor, H-89, previously found to inhibit the induction of some, but not all, markers of osteoblastic differentiation, on oxysterol-induced Gli-1 and Ptch mRNA expression was assessed by Q-RT-PCR.

Smo−/− MEFs = test: Alkaline phosphatase assay in Smo-/- mouse embryonic fibroblasts; format: cell-based; details: two days; BMP-7 50 ng/ml
Protocol: as §3

[6] = Mus musculus, M210B4, 96 h, read-out: Fold Induction over Control Untreated Cells (alkaline phosphatase activity)
[7] = Mus musculus, M210B4, 336 h, read-out: 45Ca Incorporation (fold induction over control untreated cells)

Cc1cccc(C[C@](C)(O)C2CCC3C4CC=C5C[C@@H](O)CC[C@]5(C)C4CC[C@@]32C)c1 (some centres unmarked) [Oxy11]
Fold Induction over Control Untreated Cells (alkaline phosphatase activity) ([1]; 2.5 μM, 4 days): 6 fold
Gli reporter activity (synthetic oxysterols, FIG. 10) [2]: stimulate the Gli1 reporter; also recorded: stimulation of Gli reporter activity

CC(C)CCC[C@@H](C)[C@H]1CC[C@H]2[C@@H]3C(=O)C=C4C[C@@H](O)CC[C@]4(C)[C@H]3CC[C@]12C [7-ketocholesterol, reference compound]
Induction of Gli reporter activity [2]: not observed

CC(=O)c1c(O)c(C)c(O)c(Cc2c(O)c3c(c(C(=O)/C=C/c4ccccc4)c2O)OC(C)(C)C=C3)c1O [rottlerin]
Inhibition of oxysterol-induced Gli-1 and Ptch mRNA expression (Gli-1 and Ptch mRNA): dose-dependently inhibited
Effect of agent alone on Gli-1 and Ptch gene expression (Gli-1 and Ptch mRNA; all concentrations tested, without SS): no significant effect on gene expression

O=S(=O)(c1ccccc1)N(CC(F)(F)F)c1ccc(C(O)(C(F)(F)F)C(F)(F)F)cc1 [TO-901317, reference compound]
Induction of Gli reporter activity [2]: no activation

CC1=C2C[C@H]3[C@@H](CC=C4C[C@@H](O)CC[C@@]43C)[C@@H]2CC[C@]12O[C@@H]1C[C@H](C)CN[C@H]1[C@H]2C [cyclopamine, reference compound]
Inhibition of SS-induced ALP activity ([1]; M2 cells, 5 μM SS, 3 days): significantly inhibited
Inhibition of oxysterol-increased mineralization ([3]; 4 μM pre-treatment, 5 μM SS 14 days): inhibited
Inhibition of oxysterol- or ShhN-induced Gli-luc activity ([2]; pre-treatment 2 hours, 4 μM): inhibited
Inhibition of oxysterol-induced OCN expression (osteocalcin (OCN) mRNA): inhibited
Inhibition of oxysterol-induced Gli-luc activity in C3H10T½ cells [4]: inhibited
Inhibition of oxysterol-stimulated Runx2 DNA binding activity [5]: completely inhibited

C=C(C)CCC[C@](C)(O)[C@H]1CC[C@H]2[C@@H]3CC=C4C[C@@H](O)CC[C@]4(C)[C@H]3CC[C@@]21C [Oxy13, (3S,8S,9S,10R,13S,14S,17S)-2,3,4,7,8,9,10,11,12,13,14,15,16,17-tetradecahydro-17-((S)-2-hydroxy-6-methylhept-6-en-2-yl)-10,13-dimethyl-1H-cyclopenta[a]phenanthren-3-ol]
fold induction at 2.5 µM [1, 6]: 200
fold induction at 5 µM [1, 6]: 334
fold induction at 5 µM [3, 7]: 5
fold induction at 10 µM [3, 7]: 34
fold induction at 15 µM [3, 7]: 38
Bone formation Score, individual animal (rat femur periosteum; Pump 2 wk 0.167 mg/ml): 3
Bone formation score, Average (rat femur periosteum; Pump 2 wk 0.167 mg/ml): 3.00
Bone formation Score, individual animal (rat femur periosteum; Pump 2 wk 1.67 mg/ml): 1 and 4 (3×) and 3 and 2
Bone formation score, Average (rat femur periosteum; Pump 2 wk 1.67 mg/ml): 3.00
Bone formation Score (radiograph scoring), individual animal (rat femur periosteum; Pump 4 wk 0.167 mg/ml): 0 and 2 (3×) and 3 (2×)
Bone formation score (radiograph scoring), Average (rat femur periosteum; Pump 4 wk 0.167 mg/ml): 2.00
Bone formation Score (radiograph scoring), individual animal (rat femur periosteum; Pump 4 wk 1.67 mg/ml): 2 (2×) and 3 and 1 (2×) and 0
Bone formation score (radiograph scoring), Average (rat femur periosteum; Pump 4 wk 1.67 mg/ml): 1.50
Gli reporter activity (synthetic oxysterols, FIG. 10) [2]: stimulate the Gli1 reporter; also recorded: stimulation of Gli reporter activity

O=S(=O)(NCCNC/C=C/c1ccc(Br)cc1)c1cccc2cnccc12 [Oxy H-89, H-89]
Inhibition of oxysterol-induced Gli-1 and Ptch mRNA expression (Gli-1 and Ptch mRNA): did not inhibit

CC(C)CCC[C@@H](C)[C@H]1CC[C@H]2[C@@H]3[C@H](O)C=C4C[C@@H](O)CC[C@]4(C)[C@H]3CC[C@]12C [7-α-hydroxycholesterol, reference compound]
Induction of Gli reporter activity [2]: not observed

CC(C)CCC[C@](C)(O)[C@H]1CC[C@H]2[C@@H]3CC=C4C[C@@H](O)CC[C@]4(C)[C@H]3CC[C@@]21C [Oxy 20S, 20(S)-hydroxycholesterol, reference compound]
fold induction at 7.5 µM [3, 7]: 4

CC(C)CCCC[C@](C)(O)[C@H]1CC[C@H]2[C@@H]3CC=C4C[C@@H](O)CC[C@]4(C)[C@H]3CC[C@@]21C [Oxy12, (3S,8S,9S,10R,13S,14S,17S)-2,3,4,7,8,9,10,11,12,13,14,15,16,17-tetradecahydro-17-((S)-2-hydroxy-7-methyloctan-2-yl)-10,13-dimethyl-1H-cyclopenta[a]phenanthren-3-ol]
fold induction at 5 µM [1, 6]: 22
fold induction at 10 µM [1, 6]: 80
fold induction at 5 µM [3, 7]: 2
fold induction at 10 µM [3, 7]: 4
fold induction at 15 µM [3, 7]: 7
Gli reporter activity (synthetic oxysterols, FIG. 10) [2]: stimulate the Gli1 reporter; also recorded: stimulation of Gli reporter activity

CCCCCCCCCCCCCC(=O)O[C@@H]1[C@@H](C)[C@@]2(O)[C@@H](C=C(CO)C[C@]3(O)C(=O)C(C)=C[C@@H]23)[C@@H]2C(C)(C)[C@]12OC(C)=O [PMA, Phorbol 12-Myristate 13-Acetate]
Inhibition of oxysterol-induced Gli-1 and Ptch mRNA expression (Gli-1 and Ptch mRNA): inhibited
Phosphorylated MARCKS (pMARCKS) levels (pMARCKS, pPKA, pCREB): clearly induced MARCKS phosphorylation

B1: BMB-7: bone morphogenetic protein 7 (protein, UniProt P18075 293-431, looked up)
Bone morphogenetic protein 7: STGSKQRSQNRSKTPKNQEALRMANVAENSSSDQRQACKKHELYVSFRDLGWQDWIIAPEGYAAYYCEGECAFPLNSYMNATNHAIVQTLVHFINPETVPKPCCAPTQLNAISVLYFDDSSNVILKKYRNMVVRACGCH
ALP activity / osteoblastic differentiation in Smo−/− MEFs (Smo−/− MEFs): did induce ALP activity
